Source: ChEMBL document CHEMBL1201862, “PubChem BioAssay data set” (2004)
Activity calls are given as the source filed them.

Key:
[1] = tested on: Streptococcus sp. 'group A'; experiment: Streptococcus pyogenes SK(-)GAS viability under kanamycin – luminescence, BacTiterGlo, confirmation, counter-screen for streptokinase expression inhibitor project, dose response (AID 1900); assay type: functional, organism-based
[2] = A Cell Based Secondary Assay To Explore Cytotoxicity of Compounds that Sensitize Mycobacterium Tuberculosis to Beta-Lactam Antibiotics.; assay type: functional
Streptokinase A = molecular target: T1, Streptokinase A (Streptococcus pyogenes serotype M1, UniProt P10520); experiment: viability-normalized secreted streptokinase activity reduction – plasminogen activation absorbance, OD405, dose response (AID 1914); assay type: functional, Streptococcus pyogenes M1 GAS;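 further: secreted streptokinase activity via plasminogen activation per viability signal from cell pellet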
T1 sequence (P10520 whole entry): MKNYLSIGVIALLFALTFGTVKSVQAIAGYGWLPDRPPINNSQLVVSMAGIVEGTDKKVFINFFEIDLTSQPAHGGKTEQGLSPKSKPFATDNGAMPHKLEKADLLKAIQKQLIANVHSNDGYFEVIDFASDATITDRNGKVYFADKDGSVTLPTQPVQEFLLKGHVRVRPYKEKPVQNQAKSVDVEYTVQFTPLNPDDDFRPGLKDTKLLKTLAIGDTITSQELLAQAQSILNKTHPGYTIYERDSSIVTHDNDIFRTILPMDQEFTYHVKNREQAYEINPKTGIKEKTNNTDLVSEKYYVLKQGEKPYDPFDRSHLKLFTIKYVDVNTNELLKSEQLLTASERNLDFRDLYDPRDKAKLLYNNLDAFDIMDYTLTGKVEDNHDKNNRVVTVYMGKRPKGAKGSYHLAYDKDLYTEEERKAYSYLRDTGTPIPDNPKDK

[3] = Trypanosoma cruzi growth suppression in host cells – NIH3T3 host cells, beta-gal luminescence, confirmation (AID 2044); assay type: functional, cell-based;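 further: intracellular parasites grown in NIH/3T3 mouse fibroblasts as host cells; luminescent beta-galactosidase reporter signal from transgenic T. cruzi replicating inside host cells; inhibitors lower the luminescence signal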
[4] = NIH3T3 cell viability loss – ATP luminescence, mouse fibroblasts, counter-screen, dose response (AID 2010); assay type: functional, cell-based;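 further: cells exposed to compound for about 90 hours before reading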
Streptococcus = experiment: GAS UMAA2166 growth inhibition – luminescence, BacTiterGlo, counter-screen for streptokinase expression inhibitor project, dose response (AID 1915); assay type: functional, organism-based;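 further: potency for reduction of bacterial viability or growth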
[5] = molecular target: Nucleotide-binding oligomerization domain-containing protein 2 (Homo sapiens, UniProt Q9HC29); experiment: inhibition of NOD2-driven NF-kB reporter – cell-based, luminescence, uHTS, HEK293 (AID 1566); assay type: functional
[6] = molecular target: T2, Replicative DNA helicase DnaB (Mycobacterium tuberculosis, UniProt P9WMR3); experiment: DnaB intein splicing inhibitors, dose response, biochemical, cell-free fluorescence (AID 449749); assay type: functional
T2 sequence (P9WMR3 whole entry): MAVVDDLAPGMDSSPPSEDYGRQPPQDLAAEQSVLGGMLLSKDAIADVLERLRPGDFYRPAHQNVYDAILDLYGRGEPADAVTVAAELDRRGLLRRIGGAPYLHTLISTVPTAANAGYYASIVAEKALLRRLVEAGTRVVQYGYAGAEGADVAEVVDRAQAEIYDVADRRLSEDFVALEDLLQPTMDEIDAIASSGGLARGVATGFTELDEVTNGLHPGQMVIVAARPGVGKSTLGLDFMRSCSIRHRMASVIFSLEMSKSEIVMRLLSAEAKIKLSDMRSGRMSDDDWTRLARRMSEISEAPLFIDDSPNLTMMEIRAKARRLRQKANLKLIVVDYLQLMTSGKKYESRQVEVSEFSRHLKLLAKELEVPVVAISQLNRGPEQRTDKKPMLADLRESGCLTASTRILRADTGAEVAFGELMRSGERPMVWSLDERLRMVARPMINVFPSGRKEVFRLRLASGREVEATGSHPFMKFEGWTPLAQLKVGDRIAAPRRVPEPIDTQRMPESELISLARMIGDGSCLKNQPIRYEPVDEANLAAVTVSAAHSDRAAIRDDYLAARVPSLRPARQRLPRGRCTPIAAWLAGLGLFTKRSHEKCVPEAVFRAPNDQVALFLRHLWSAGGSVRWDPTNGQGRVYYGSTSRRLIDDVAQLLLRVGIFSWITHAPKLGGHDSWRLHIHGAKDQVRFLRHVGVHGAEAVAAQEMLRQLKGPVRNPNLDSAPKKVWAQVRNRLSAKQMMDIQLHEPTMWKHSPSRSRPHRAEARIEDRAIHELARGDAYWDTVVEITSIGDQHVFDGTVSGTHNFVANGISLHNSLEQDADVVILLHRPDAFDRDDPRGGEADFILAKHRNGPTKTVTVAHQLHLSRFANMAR

Protein RecA = molecular target: T3, Protein RecA (Mycobacterium tuberculosis, UniProt P9WHJ3); experiment: Fluorescence Cell-Free Homogeneous Dose Retest to Identify Inhibitors of RecA-Intein Splicing Activity. [Related pubchem assays (depositor defined):AID2097, AID2223, AID489010, AID492950]; assay type: functional
T3 sequence (P9WHJ3 whole entry): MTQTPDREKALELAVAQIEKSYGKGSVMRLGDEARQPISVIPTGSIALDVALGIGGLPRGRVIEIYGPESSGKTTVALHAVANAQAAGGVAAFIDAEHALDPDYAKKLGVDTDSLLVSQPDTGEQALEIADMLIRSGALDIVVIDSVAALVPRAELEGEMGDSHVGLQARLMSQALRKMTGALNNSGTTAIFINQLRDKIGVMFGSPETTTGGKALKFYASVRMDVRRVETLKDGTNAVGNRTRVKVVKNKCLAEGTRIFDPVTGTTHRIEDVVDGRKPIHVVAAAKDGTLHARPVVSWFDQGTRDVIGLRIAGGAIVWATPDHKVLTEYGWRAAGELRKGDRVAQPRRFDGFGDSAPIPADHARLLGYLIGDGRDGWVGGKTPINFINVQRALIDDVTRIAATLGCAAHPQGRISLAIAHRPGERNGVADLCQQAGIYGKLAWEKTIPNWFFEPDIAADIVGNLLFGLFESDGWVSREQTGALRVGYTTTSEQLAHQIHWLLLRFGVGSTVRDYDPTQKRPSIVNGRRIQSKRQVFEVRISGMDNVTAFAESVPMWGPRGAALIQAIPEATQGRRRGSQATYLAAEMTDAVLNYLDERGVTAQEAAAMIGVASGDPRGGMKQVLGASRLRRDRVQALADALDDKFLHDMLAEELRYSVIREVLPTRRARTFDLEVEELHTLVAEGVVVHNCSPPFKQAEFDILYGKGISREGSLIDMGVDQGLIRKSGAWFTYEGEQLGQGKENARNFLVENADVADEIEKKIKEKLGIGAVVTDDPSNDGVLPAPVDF

[7] = A cytotoxicity screen of small molecule inhibitors of the PhoP region in Salmonella typhi identified in the primary screen. [Related pubchem assays: 1850, 1864, 1985 ]; assay type: functional
[8] = HIV-1 Vif–A3G interaction blockers – biochemical, TR-FRET, GST-Vif 1-94, biotin-A3G peptide, dose response retest, primary screen (AID 1117319); assay type: functional;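 further: TR-FRET signal of purified GST-Vif binding a biotinylated A3G peptide; inhibitors lower the FRET signal by blocking Vif and A3G binding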
[9] = Luminescence Cell-Based Dose Retest to Confirm Inhibitors of Cancer Stem Cells. [Related pubchem assays (depositor defined):AID2717, AID2721]; assay type: functional; conditions: Homo sapiens
Beta-galactosidase = Beta-galactosidase (Escherichia coli, UniProt Q8VNN2); experiment: detection-enzyme interference by beta-gal modulators – biochemical, E. coli enzyme, set 3, artefact control for CCR6 antagonist project, dose response (AID 504712); assay type: functional
[10] = molecular target: DNA dC->dU-editing enzyme APOBEC-3G (Homo sapiens, UniProt Q9HC16); experiment: Dose Response confirmation of small molecule APOBEC3G DNA Deaminase Inhibitors via a fluorescence-based single-stranded DNA deaminase assay. [Related pubchem assays (depositor defined):AID493012, AID493028]; assay type: functional
[11] = molecular target: Heat shock protein HSP 90-alpha (Homo sapiens, UniProt P07900); assay type: functional, organism-based
[12] = molecular target: Eukaryotic translation initiation factor 4E (Mus musculus, UniProt P63073); experiment: blockers of eIF4G binding by eIF4E – biochemical, TR-FRET, dose response (AID 855); assay type: functional;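 further: potency for disrupting eIF4E binding to eIF4GI seen as loss of FRET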
[13] = molecular target: T4, Carboxy-terminal domain RNA polymerase II polypeptide A small phosphatase 1 (Homo sapiens, UniProt Q9GZU7); experiment: CTDSP1 inhibitors, concentration-response, biochemical, absorbance readout, ultra-high-throughput screen actives (AID 540297); assay type: functional
T4 sequence (Q9GZU7 whole entry): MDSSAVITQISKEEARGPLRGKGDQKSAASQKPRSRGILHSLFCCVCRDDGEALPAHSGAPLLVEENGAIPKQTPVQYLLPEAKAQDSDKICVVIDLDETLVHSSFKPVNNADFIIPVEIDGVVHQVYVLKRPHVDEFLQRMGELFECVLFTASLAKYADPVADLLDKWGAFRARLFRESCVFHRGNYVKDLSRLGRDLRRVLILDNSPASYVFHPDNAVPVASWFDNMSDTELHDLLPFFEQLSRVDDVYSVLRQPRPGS

Coagulation factor XII = molecular target: T5, Coagulation factor XII (Homo sapiens, UniProt P00748); assay type: functional;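 further: activated factor XIIa alpha cleaving a fluorogenic AMC peptide substrate; inhibitor potency from loss of enzyme activity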
T5 sequence (P00748 whole entry): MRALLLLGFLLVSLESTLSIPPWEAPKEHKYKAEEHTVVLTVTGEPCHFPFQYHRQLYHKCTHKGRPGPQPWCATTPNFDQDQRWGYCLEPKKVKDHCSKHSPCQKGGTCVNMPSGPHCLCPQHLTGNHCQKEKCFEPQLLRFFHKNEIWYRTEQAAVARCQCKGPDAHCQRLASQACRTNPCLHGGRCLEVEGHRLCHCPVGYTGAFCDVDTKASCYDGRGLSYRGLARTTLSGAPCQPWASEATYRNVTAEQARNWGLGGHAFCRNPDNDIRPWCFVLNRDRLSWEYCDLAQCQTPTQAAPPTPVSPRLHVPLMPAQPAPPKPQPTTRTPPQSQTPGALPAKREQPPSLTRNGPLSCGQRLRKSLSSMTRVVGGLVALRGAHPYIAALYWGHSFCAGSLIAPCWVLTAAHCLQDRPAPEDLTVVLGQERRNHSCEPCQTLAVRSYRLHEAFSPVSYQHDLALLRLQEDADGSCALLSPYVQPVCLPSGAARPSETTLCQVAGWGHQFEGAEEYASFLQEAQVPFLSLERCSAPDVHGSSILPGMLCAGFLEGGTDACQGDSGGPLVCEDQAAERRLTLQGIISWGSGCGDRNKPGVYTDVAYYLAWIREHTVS

Troponin, cardiac muscle = Troponin, cardiac muscle (Homo sapiens, UniProt P19429+P45379+P63316); experiment: Fluorescence-based biochemical high throughput dose response assay for activators of the calcium sensitivity of cardiac Regulated Thin Filaments (RTF). [Related pubchem assays (depositor defined):AID493008, AID493018, AID504382, AID504383]; assay type: protein-complex assay

For `CCOC(=O)c1sc(NC(=O)Nc2ccc(Cl)cc2)cc1C`, the EC50 [1] was 6.12 µM (active), the CC50 [2] was 24.9 µM (active) and the EC50 (Streptokinase A) was 26.1 µM (inconclusive). The EC50 [3] was 1.5 µM (active), the EC50 [4] was > 60 µM (not active) and the EC50 (Streptococcus) was 15.6 µM (active).

With `O=C(c1[nH]ncc1-c1ccc(Cl)cc1)C1CO1` (configuration not stated) the EC50 [5] was > 20 µM (inactive), the AC50 [6] was 31.7 µM (active) and the EC50 (Protein RecA) was 20.9 µM (active).

In the case of `CCn1c(=N)n(CC(=O)c2ccc(OC)cc2)c2ccccc21`, the EC50 [7] is reported as > 50 µM (active) and the IC50 [8] is reported as > 100 µM (active).

In the case of `CCOC(=O)/C=C/C(=O)Nc1cccc([N+](=O)[O-])c1`, the AC50 [9] is reported as 5.87 µM (active), the IC50 (Beta-galactosidase) is reported as > 66.6 µM (inactive) and the IC50 [10] is reported as 11 µM (active). For the same molecule, the AC50 [11] was 3.97 µM (active).

For `CCOc1ccccc1NC(=O)N1CCC(NC(=O)c2cccc(C)c2)CC1`, the IC50 [12] was 58 µM (inactive) and the IC50 [13] was 18.8 µM (active).

In the case of `O=C(Nc1cccnc1)c1c(O)c2c(n(Cc3ccccc3)c1=O)CCCC2`, the IC50 [12] is reported as > 64 µM (inactive).

For `N#Cc1c2n(c3c(=O)n(Cc4ccccc4)cnc13)CCCC2`, the IC50 (Coagulation factor XII) was > 50 µM (inactive).

In the case of `COC(=O)c1ccc(S(=O)(=O)N2CCC(O)CC2)n1C`, the EC50 (Troponin, cardiac muscle) is reported as > 71.4 µM (inactive).

For `O=[N+]([O-])c1ccc2c(c1)c1ccccc1n2CCO`, the IC50 (Coagulation factor XII) was > 50 µM (inactive).

In the case of `Cc1ccc(-n2ncc3c(O)ncnc32)c(C)c1`, the IC50 (Coagulation factor XII) is reported as > 50 µM (inactive).
